BindingDB's records for doi:10.1016/j.bmcl.2007.04.105 (Abbott Laboratories, 2007)

Target: Transient receptor potential cation channel subfamily V member 1 (Homo sapiens, UniProt Q8NER1)
Assay: Ca2+ Influx Functional Assay for the Determination of in Vitro Activity.
Details: pH 7.4; 22 °C; read-out: EC50 (the source's name)
Experimental: The functional antagonist activity of compounds at the TRPV1 receptor was determined with a Ca2+ influx assay by measuring the effect on capsaicin (0.05 uM) evoked increase in intracellular Ca2+ levels using cells stably expressing recombinant human TRPV1. All compounds were tested over an 11-point half-log concentration range. The fluorescent Ca2+ chelating dye fluo-4 was used as an indicator of the relative levels of Ca2+ in a 96-well format using a fluorescence imaging plate reader. Fluorescence readings were made at 1-5 s intervals over the 240 s course of the experimental run. The peak increase in relative fluorescence units was calculated and expressed as a percentage of the 0.05 uM capsaicin (control) response. Curve fits of the data were solved using a four-parameter logistic Hill equation in GraphPad Prism, and IC50 values were calculated.

Sequence of Transient receptor potential cation channel subfamily V member 1 (Q8NER1 whole entry): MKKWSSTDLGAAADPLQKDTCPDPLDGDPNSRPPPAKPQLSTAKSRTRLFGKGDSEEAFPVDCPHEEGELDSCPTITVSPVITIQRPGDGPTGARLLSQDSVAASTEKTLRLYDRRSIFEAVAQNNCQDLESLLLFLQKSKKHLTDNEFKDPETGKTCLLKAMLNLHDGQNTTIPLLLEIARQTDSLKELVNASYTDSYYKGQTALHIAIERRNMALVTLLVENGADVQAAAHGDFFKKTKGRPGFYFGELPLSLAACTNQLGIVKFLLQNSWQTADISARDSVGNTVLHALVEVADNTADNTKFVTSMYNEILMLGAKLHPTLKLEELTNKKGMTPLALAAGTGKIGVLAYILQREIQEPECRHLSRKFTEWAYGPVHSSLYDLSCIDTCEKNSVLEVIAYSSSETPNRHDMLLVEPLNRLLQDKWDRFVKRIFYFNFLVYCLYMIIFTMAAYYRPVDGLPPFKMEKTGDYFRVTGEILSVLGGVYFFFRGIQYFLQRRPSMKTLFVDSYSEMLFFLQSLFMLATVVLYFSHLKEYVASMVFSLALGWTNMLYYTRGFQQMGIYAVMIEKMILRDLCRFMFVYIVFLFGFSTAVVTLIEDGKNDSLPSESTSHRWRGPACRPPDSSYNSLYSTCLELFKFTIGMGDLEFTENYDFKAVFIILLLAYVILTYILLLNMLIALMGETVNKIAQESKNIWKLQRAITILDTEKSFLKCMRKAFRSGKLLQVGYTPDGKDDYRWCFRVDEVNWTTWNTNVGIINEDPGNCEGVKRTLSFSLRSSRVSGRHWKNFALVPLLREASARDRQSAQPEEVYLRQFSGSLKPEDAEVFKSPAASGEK

| SMILES | IC50 [nM] |
| --- | --- |
| C[C@H](NC(=O)Nc1cccc2[nH]ncc12)c1ccc2ccccc2c1 [3-1H-indazol-4-yl-1-[(1S)-1-(naphthalen-2-yl)ethyl]urea] | 3750 |
| Cc1ccc([C@H](C)NC(=O)Nc2cccc3[nH]ncc23)cc1 [3-1H-indazol-4-yl-1-[(1S)-1-(4-methylphenyl)ethyl]urea] | 749 |
| CC(NC(=O)Nc1cccc2cnccc12)c1ccc(C(C)(C)C)cc1C(C)(C)C (configuration not stated) [3-[1-(2,4-di-tert-butylphenyl)ethyl]-1-isoquinolin-5-ylurea] | 17 |
| Cc1cc(C(C)(C)C)ccc1C(C)NC(=O)Nc1cccc2cnccc12 (configuration not stated) [3-[1-(4-tert-butyl-2-methylphenyl)ethyl]-1-isoquinolin-5-ylurea] | 46 |
| C[C@H](NC(=O)Nc1cccc2[nH]ncc12)c1ccc(C(F)(F)F)cc1 [3-1H-indazol-4-yl-1-[(1S)-1-[4-(trifluoromethyl)phenyl]ethyl]urea] | 248 |
| O=C(Nc1cccc2cnccc12)NC(c1ccc(C(F)(F)F)cc1)C1CCCC1 (configuration not stated) [3-{cyclopentyl[4-(trifluoromethyl)phenyl]methyl}-1-isoquinolin-5-ylurea] | 476 |
| CCc1cc(C(C)(C)C)ccc1C(C)NC(=O)Nc1cccc2cnccc12 (configuration not stated) [3-[1-(4-tert-butyl-2-ethylphenyl)ethyl]-1-isoquinolin-5-ylurea] | 20 |
| O=C(Nc1cccc2cnccc12)NC(c1ccc(C(F)(F)F)cc1)C1CCCCC1 (configuration not stated) [1-{cyclohexyl[4-(trifluoromethyl)phenyl]methyl}-3-isoquinolin-5-ylurea] | 287 |
| CC(C)(NC(=O)Nc1cccc2cnccc12)c1ccc(C(F)(F)F)cc1 [1-isoquinolin-5-yl-3-{2-[4-(trifluoromethyl)phenyl]propan-2-yl}urea] | 94 |
| CCC(NC(=O)Nc1cccc2cnccc12)c1ccc(C(F)(F)F)c(F)c1 (configuration not stated) [3-{1-[3-fluoro-4-(trifluoromethyl)phenyl]propyl}-1-isoquinolin-5-ylurea] | 109 |
| C[C@@H](NC(=O)Nc1cccc2[nH]ncc12)c1ccc(C(F)(F)F)cc1 [3-1H-indazol-4-yl-1-[(1R)-1-[4-(trifluoromethyl)phenyl]ethyl]urea] | 41 |
| C[C@@H](NC(=O)Nc1cccc2[nH]ncc12)c1ccc2ccccc2c1 [3-1H-indazol-4-yl-1-[(1R)-1-(naphthalen-2-yl)ethyl]urea] | 123 |
| CC(NC(=O)Nc1cccc2[nH]ncc12)c1ccc(C(F)(F)F)cc1 (racemic) [3-1H-indazol-4-yl-1-{1-[4-(trifluoromethyl)phenyl]ethyl}urea] | 47 |
| Cc1ccc([C@@H](C)NC(=O)Nc2cccc3[nH]ncc23)cc1 [3-1H-indazol-4-yl-1-[(1R)-1-(4-methylphenyl)ethyl]urea] | 73 |

Further lines, results first:

| IC50 [nM] | SMILES |
| --- | --- |
| 143 | CC(C)(NC(=O)Nc1cccc2cnccc12)c1ccc(Cl)cc1 [3-[2-(4-chlorophenyl)propan-2-yl]-1-isoquinolin-5-ylurea] |
| 22 | CC(NC(=O)Nc1cccc2cnccc12)c1ccc(C(F)(F)F)cc1 (configuration not stated) |
| 147 | O=C(Nc1cccc2cnccc12)NC(c1ccccc1)c1ccc(C(F)(F)F)cc1 (configuration not stated) [3-isoquinolin-5-yl-1-{phenyl[4-(trifluoromethyl)phenyl]methyl}urea] |
| 149 | O=C(Nc1cccc2cnccc12)NC(c1ccc(C(F)(F)F)cc1)C1CC1 (configuration not stated) [3-{cyclopropyl[4-(trifluoromethyl)phenyl]methyl}-1-isoquinolin-5-ylurea] |
| 600 | O=C(Nc1cccc2cnccc12)NC(c1ccccc1)c1ccccc1 [1-(diphenylmethyl)-3-isoquinolin-5-ylurea] |
| 2580 | CCC(NC(=O)Nc1cccc2cnccc12)c1ccccc1 (configuration not stated) [1-isoquinolin-5-yl-3-(1-phenylpropyl)urea] |
| 15900 | N#CCC(NC(=O)Nc1cccc2cnccc12)c1ccccc1 (configuration not stated) [3-(2-cyano-1-phenylethyl)-1-isoquinolin-5-ylurea] |
| 26 | CC(NC(=O)Nc1cccc2cnccc12)c1ccc(Br)cc1 (configuration not stated) [3-[1-(4-bromophenyl)ethyl]-1-isoquinolin-5-ylurea] |
| 31000 | CN(C)CC(NC(=O)Nc1cccc2cnccc12)c1ccccc1 (configuration not stated) [3-[2-(dimethylamino)-1-phenylethyl]-1-isoquinolin-5-ylurea] |
| 171 | O=C(Nc1cccc2cnccc12)NC(c1ccccc1)c1ccc(N2CCCCC2)cc1 (configuration not stated) [3-isoquinolin-5-yl-1-{phenyl[4-(piperidin-1-yl)phenyl]methyl}urea] |
| 24 | CC(NC(=O)Nc1cccc2cnccc12)c1ccc(C(C)(C)C)cc1 (configuration not stated) [3-[1-(4-tert-butylphenyl)ethyl]-1-isoquinolin-5-ylurea] |
| 19 | CC(NC(=O)Nc1cccc2cnccc12)c1ccc(C(F)(F)F)c(F)c1 (configuration not stated) [3-{1-[3-fluoro-4-(trifluoromethyl)phenyl]ethyl}-1-isoquinolin-5-ylurea] |
| 125 | CC(C)(C)c1ccc(C(NC(=O)Nc2cccc3cnccc23)c2ccccc2)cc1 (configuration not stated) [1-[(4-tert-butylphenyl)(phenyl)methyl]-3-isoquinolin-5-ylurea] |
